Laboratory results as given in patent US20220112187A1, “PYRAZOLOPYRIDINE AMINE COMPOUNDS FOR THE TREATMENT OF AUTOIMMUNE DISEASE” (Hoffmann-La Roche Inc., priority 2018, published 2022).

Biological target: T1, human TLR9 (Homo sapiens, UniProt Q9NR96)
T1 sequence (Q9NR96 26-1032): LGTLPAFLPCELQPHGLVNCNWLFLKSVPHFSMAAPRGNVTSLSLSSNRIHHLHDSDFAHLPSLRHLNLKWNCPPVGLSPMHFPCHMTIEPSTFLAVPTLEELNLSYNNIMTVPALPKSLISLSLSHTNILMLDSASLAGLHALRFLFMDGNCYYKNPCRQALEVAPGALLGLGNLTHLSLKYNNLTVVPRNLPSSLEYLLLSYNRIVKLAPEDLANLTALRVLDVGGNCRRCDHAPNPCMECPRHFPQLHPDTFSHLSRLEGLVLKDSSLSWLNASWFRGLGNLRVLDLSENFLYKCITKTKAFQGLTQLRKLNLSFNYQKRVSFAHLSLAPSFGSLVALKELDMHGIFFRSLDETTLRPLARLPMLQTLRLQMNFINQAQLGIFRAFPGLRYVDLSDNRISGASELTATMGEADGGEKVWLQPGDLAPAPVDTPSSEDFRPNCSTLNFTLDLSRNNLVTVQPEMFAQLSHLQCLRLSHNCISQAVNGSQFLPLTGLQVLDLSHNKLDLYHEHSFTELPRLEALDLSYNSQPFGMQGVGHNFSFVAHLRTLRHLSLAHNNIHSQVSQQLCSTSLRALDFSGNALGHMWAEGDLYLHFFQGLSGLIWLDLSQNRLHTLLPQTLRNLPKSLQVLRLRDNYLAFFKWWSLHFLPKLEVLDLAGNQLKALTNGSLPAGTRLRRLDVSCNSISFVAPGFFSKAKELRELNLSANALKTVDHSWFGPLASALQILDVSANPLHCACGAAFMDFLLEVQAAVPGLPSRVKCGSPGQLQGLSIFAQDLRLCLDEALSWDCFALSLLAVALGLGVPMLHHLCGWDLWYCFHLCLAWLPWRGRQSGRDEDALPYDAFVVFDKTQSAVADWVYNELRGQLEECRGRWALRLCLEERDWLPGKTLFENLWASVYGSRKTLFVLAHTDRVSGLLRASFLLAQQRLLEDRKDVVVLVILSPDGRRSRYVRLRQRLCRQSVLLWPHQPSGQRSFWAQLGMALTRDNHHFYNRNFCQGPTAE
Experiment: HEK293-Blue-hTLR-9 cells assay (SEAP reporter, ODN2006 stimulation)
Type: cell-based
Conditions: HEK293-Blue-hTLR9 cells, ODN2006 ligand, 20 hrs incubation
From the text: A stable HEK293-Blue-hTLR-9 cell line was purchased from InvivoGen (Cat. #: hkb-htlr9, San Diego, Calif., USA). These cells were originally designed for studying the stimulation of human TLR9 by monitoring the activation of NF-κB. A SEAP (secreted embryonic alkaline phosphatase) reporter gene was placed under the control of the IFN-β minimal promoter fused to five NF-κB and AP-1-binding sites. The SEAP was induced by activating NF-κB and AP-1 via stimulating HEK-Blue hTLR9 cells with TLR9 ligands. Therefore the reporter expression was declined by TLR9 antagonist under the stimulation of a ligand, such as ODN2006 (Cat. #: tlr1-2006-1, Invivogen, San Diego, Calif., USA), for incubation of 20 hrs. The cell culture supernatant SEAP reporter activity was determined using QUANTI-Blue™ kit (Cat. #: rep-qb1, Invivogen, San Diego, Calif., USA) at a wavelength of 640 nm, a detection medium that turns purple or blue in the presence of alkaline phosphatase.
HEK293-Blue-hTLR9 cells were incubated at a density of 250,000˜450,000 cells/mL in a volume of 170 μL in a 96-well plate in Dulbecco's Modified Eagle's medium (DMEM) containing 4.5 g/L glucose, 50 U/mL penicillin, […], […], 2 mM L-glutamine, 10% (v/v) heat-inactivated fetal bovine serum with addition of 20 μL test compound in a serial dilution in the presence of final DMSO at 1% and 10 μL of 20 uM ODN2006 in above DMEM, perform incubation under 37° C. in a CO2 incubator for 20 hrs. Then 20 μL of the supernatant from each well was incubated with 180 μL Quanti-blue substrate solution at 37° C. for 2 hrs and the absorbance was read at 620-655 nm using a spectrophotorneter. The signalling pathway that TLR9 activation leads to downstream NF-κB activation has been widely accepted, and therefore similar reporter assay was modified for evaluating TLR9 antagonist.

Row | IC50 [nM] | SMILES
1 | 31 | C[C@@H]1CN(c2ccc(C#N)n3nccc23)C[C@H](CN2CCC3(CCNC3)C2)O1 (stereo partly drawn) [Example 6, 4-[(2S,6R)-2-(2,7-diazaspiro[4.4]nonan-2-ylmethyl)-6-methyl-morpholin-4-yl]pyrazolo[1,5-a]pyridine-7-carbonitrile]
2 | 13000 | C[C@@H]1CN(c2ccc(C#N)n3nccc23)C[C@H](CN2CCNC3(CC3)C2)O1 [Example 40, 4-[(2S,6R)-2-(4,7-diazaspiro[2.5]octan-7-ylmethyl)-6-methyl-morpholin-4-yl]pyrazolo[1,5-a]pyridine-7-carbonitrile]
3 | 89 | C[C@@H]1CN(c2ccc(C#N)n3nccc23)C[C@H](CN2CCC3(CCNCC3)C2)O1 [Example 18, 4-[(2S,6R)-2-(2,8-diazaspiro[4.5]decan-2-ylmethyl)-6-methyl-morpholin-4-yl]pyrazolo[1,5-a]pyridine-7-carbonitrile]
4 | 100 | C[C@@H]1CN(c2ccc(C#N)n3nccc23)C[C@H](CN2CC3(CCNCC3)C2)O1 [Example 24, 4-[(2S,6R)-2-(2,7-diazaspiro[3.5]nonan-2-ylmethyl)-6-methyl-morpholin-4-yl]pyrazolo[1,5-a]pyridine-7-carbonitrile]
5 | 65 | C[C@@H]1CN(c2ccc(C#N)n3nccc23)C[C@H](CN2CCCC3(CCNCC3)C2)O1 [Example 32, 4-[(2S,6R)-2-(2,9-diazaspiro[5.5]undecan-2-ylmethyl)-6-methyl-morpholin-4-yl]pyrazolo[1,5-a]pyridine-7-carbonitrile]
6 | 110 | C[C@@H]1CN(c2ccc(C#N)n3nccc23)C[C@H](CN2CCCC3(CCNC3)C2)O1 (stereo partly drawn) [Example 44, 4-[(2S,6R)-2-(2,7-diazaspiro[4.5]decan-7-ylmethyl)-6-methyl-morpholin-4-yl]pyrazolo[1,5-a]pyridine-7-carbonitrile]
7 | 510 | C[C@@H]1CN(c2ccc(C#N)n3nccc23)C[C@H](CN2CCOC3(CCNCC3)C2)O1 [Example 71, 4-[(2R,6S)-2-methyl-6-(1-oxa-4,9-diazaspiro[5.5]undecan-4-ylmethyl)morpholin-4-yl]pyrazolo[1,5-a]pyridine-7-carbonitrile]
8 | 190 | C[C@@H]1CN(c2ccc(C#N)n3nccc23)C[C@H](CN2CCC3(CCCCN3)CC2)O1 [Example 47, 4-[(2S,6R)-2-(1,9-diazaspiro[5.5]undecan-9-ylmethyl)-6-methyl-morpholin-4-yl]pyrazolo[1,5-a]pyridine-7-carbonitrile]
9 | 1700 | C[C@@H]1CN(c2ccc(C#N)n3nccc23)C[C@H](CN2CCC3(CCCCN3)C2)O1 (stereo partly drawn) [Example 42, 4-[(2S,6R)-2-(2,6-diazaspiro[4.5]decan-2-ylmethyl)-6-methyl-morpholin-4-yl]pyrazolo[1,5-a]pyridine-7-carbonitrile]

Second part, the compound before the results:

Row | SMILES | IC50 [nM]
10 | C[C@@H]1CN(c2ccc(C#N)n3nccc23)C[C@H](CN2CC3CCC2CN3)O1 (stereo partly drawn) [Example 30, 4-[(2S,6R)-2-(2,5-diazabicyclo[2.2.2]octan-2-ylmethyl)-6-methyl-morpholin-4-yl]pyrazolo[1,5-a]pyridine-7-carbonitrile] | 3200
11 | C[C@@H]1CN(c2ccc(C#N)n3nccc23)C[C@H](CN2CC[C@@H]3CNCC32)O1 (stereo partly drawn) [Example 62, 4-[(2R,6S)-2-methyl-6-[[cis-(3aR,6aR)-3,3a,4,5,6,6a-hexahydro-2H-pyrrolo[3,4-b]pyrrol-1-yl]methyl]morpholin-4-yl]pyrazolo[1,5-a]pyridine-7-carbonitrile] | 2400
12 | C[C@@H]1CN(c2ccc(C#N)n3nccc23)C[C@H](CN2CCN(C3CCNCC3)CC2Cc2ccccc2)O1 (stereo partly drawn) [Example 77, 4-[(2S,6R)-2-[[2-benzyl-4-(4-piperidyl)piperazin-1-yl]methyl]-6-methyl-morpholin-4-yl]pyrazolo[1,5-a]pyridine-7-carbonitrile] | 150
13 | C[C@@H]1CN(c2ccc(C#N)n3nccc23)C[C@H](CN2CC3(CC(N)C3)C2)O1 [Example 11, 4-[(2S,6R)-2-[(6-amino-2-azaspiro[3.3]heptan-2-yl)methyl]-6-methyl-morpholin-4-yl]pyrazolo[1,5-a]pyridine-7-carbonitrile] | 97
14 | C[C@@H]1CN(c2ccc(C#N)n3nccc23)C[C@H](CN2CCNCC2Cc2ccccc2)O1 (stereo partly drawn) [Example 59, 4-[(2S,6R)-2-[(2-benzylpiperazin-1-yl)methyl]-6-methyl-morpholin-4-yl]pyrazolo[1,5-a]pyridine-7-carbonitrile] | 1500
15 | C[C@@H]1CN(c2ccc(C#N)n3nccc23)C[C@H](CN2CCC(N)(c3ccccc3)CC2)O1 [Example 73, 4-[(2S,6R)-2-[(4-amino-4-phenyl-1-piperidyl)methyl]-6-methyl-morpholin-4-yl]pyrazolo[1,5-a]pyridine-7-carbonitrile] | 220
16 | C[C@@H]1CN(c2ccc(C#N)n3nccc23)C[C@H](CN2CC3CCNCC32)O1 (stereo partly drawn) [Example 56, 4-[(2S,6R)-2-(3,8-diazabicyclo[4.2.0]octan-8-ylmethyl)-6-methyl-morpholin-4-yl]pyrazolo[1,5-a]pyridine-7-carbonitrile] | 850
17 | C[C@@H]1CN(c2ccc(C#N)n3nccc23)C[C@H](CN2CCC(N)C(F)(F)C2)O1 (stereo partly drawn) [Example 34, 4-[(2S,6R)-2-[(4-amino-3,3-difluoro-1-piperidyl)methyl]-6-methyl-morpholin-4-yl]pyrazolo[1,5-a]pyridine-7-carbonitrile] | 99000
18 | C[C@@H]1CN(c2ccc(C#N)n3nccc23)C[C@H](CN2CCC(N3CCNCC3)CC2)O1 [Example 39, 4-[(2R,6S)-2-methyl-6-[(4-piperazin-1-yl-1-piperidyl)methyl]morpholin-4-yl]pyrazolo[1,5-a]pyridine-7-carbonitrile] | 96
19 | C[C@@H]1CN(c2ccc(C#N)n3nccc23)C[C@H](CN2C3CNCC2COC3)O1 [Example 57, 4-[(2R,6S)-2-methyl-6-(3-oxa-7,9-diazabicyclo[3.3.1]nonan-9-ylmethyl)morpholin-4-yl]pyrazolo[1,5-a]pyridine-7-carbonitrile] | 10000
20 | C[C@@H]1CN(c2ccc(C#N)n3nccc23)C[C@H](CN2C3COCC2CC(N)C3)O1 (stereo partly drawn) [Example 58, 4-[(2S,6R)-2-[(7-amino-3-oxa-9-azabicyclo[3.3.1]nonan-9-yl)methyl]-6-methyl-morpholin-4-yl]pyrazolo[1,5-a]pyridine-7-carbonitrile] | 390
21 | CC1CNCCN1C[C@H]1CN(c2ccc(C#N)n3nccc23)C[C@@H](C)O1 (single isomer, unassigned) [Example 50B] | 24000
22 | C[C@@H]1CN(c2ccc(C#N)n3nccc23)C[C@H](CN2CCC(N3CCCCCC3)CC2)O1 [Example 4, 4-[(2S,6R)-2-[[4-(azepan-1-yl)-1-piperidyl]methyl]-6-methyl-morpholin-4-yl]pyrazolo[1,5-a]pyridine-7-carbonitrile] | 280
23 | C[C@@H]1CN(c2ccc(C#N)n3nccc23)C[C@H](CN2CCC(CN)CC2)O1 [Example 12, 4-[(2S,6R)-2-[[4-(aminomethyl)-1-piperidyl]methyl]-6-methyl-morpholin-4-yl]pyrazolo[1,5-a]pyridine-7-carbonitrile] | 200
24 | CC1CC(N)CCN1C[C@H]1CN(c2ccc(C#N)n3nccc23)C[C@@H](C)O1 (stereo partly drawn) [Example 51, 4-[(2S,6R)-2-[(4-amino-2-methyl-1-piperidyl)methyl]-6-methyl-morpholin-4-yl]pyrazolo[1,5-a]pyridine-7-carbonitrile] | 230
